In paper PMC7897990, “TriTOX: A novel Trichomonas vaginalis assay platform for high-throughput screening of compound libraries” (International Journal for Parasitology: Drugs and Drug …, 2021):
Where two headings read alike, the source gives them in different places. Starred links: 1 amine or outer side, 2 acyl side, 3 side chain; linkers in the order of their positions; H or OH if unused. Positions of bridges follow the written chain, without caps; N, C: chain ends. Non-standard residues stand in square brackets, D forms with d. Residues, ends and D or L forms follow the SMILES beside them. *: point of attachment. Orn(4R-OH,5R-OH) = O=C([C@H](C[C@@H](O)[C@@H](O)N[*:3])N[*:1])[*:2]; Tetradecanoyl(10R,12S-Me2) = CC[C@H](C)C[C@H](C)CCCCCCCCC(=O)*; hTyr(3S-OH,4S-OH) = N[C@H](C(=O)O)[C@H](O)[C@@H](O)c1ccc(O)cc1; Gln(3R-OH) = NC(=O)C[C@@H](O)[C@H](N)C(=O)O; Pro(3S-OH) = O=C(O)[C@H]1NCC[C@@H]1O; Hyp = O=C(O)[C@@H]1C[C@@H](O)CN1

How the values were obtained:
[1] = tested on: Trichomonas vaginalis G3 trophozoites; details: for T.vaginalis_Absorbance_Rep1: replicate 1, raw absorbance; for T.vaginalis_Absorbance_Rep2: replicate 2, raw absorbance; for T. vaginalis HTS result in words: 384-well, 25 μL, 10,000 cells/mL, 48 h, biological duplicates, hit = >50% inhibition
[2] = tested on: nontumorigenic neonatal foreskin fibroblast (NFF) cell line; details: NFF cells; screen at 5 µg/mL
[3] = HTS, parasite screen at 1 µg/mL, replicate 1
[4] = HTS, parasite screen at 1 µg/mL
[5] = HTS, parasite screen at 1 µg/mL, replicate 2
[6] = HTS replicate 1, parasite screen 1 µg/mL
[7] = HTS replicate 2, parasite screen 1 µg/mL

Molecule | T.vaginalis_%inb_Rep1 [1, 3] [%] | T.vaginalis_Absorbance_Rep1 [1, 4] | T.vaginalis_%inb_Rep2 [1, 5] [%] | T.vaginalis_Absorbance_Rep2 [1, 4] | T.vaginalis_%inb_Rep1 [1, 6] [%] | T.vaginalis_%inb_Rep2 [1, 7] [%] | other results
COc1c(O)c(C)c(C)c(O)c1OC [BIA-H1651] |  |  |  |  |  |  | T.vaginalis_%inb_Rep1 ([1]; replicate 1, parasite screen at 1 µg/mL): 13.69%; T.vaginalis_%inb_Rep2 ([1]; replicate 2, parasite screen at 1 µg/mL): 12.19%; NFF_Activity [2]: A (active (A) compounds having >25% inhibitory activity)
CC1=CCCC(C)C(O)C(C)C(O)CCC=CC(C)C(O)C=CC(C)C(O)C(C)=CC(O[C@H]2O[C@H](CO)[C@@H](O)[C@H](O)[C@@H]2O)C(O)CC(O)CC(O)CC(O)C(C)C(O)C(C)C(O)CC(O)CC(O)C=CCC(C(C)C(O)CCCN)OC1=O (stereo partly drawn) [Desertomycin A] | 12.39 | 0.939 | 12.87 | 0.798 |  |  | 
C/C=C\C=C\[C@@H]1O[C@](O)([C@H](CO[C@H]2C[C@@H](OC)[C@@H](O[C@@H]3C[C@@H](OC)[C@@H](O[C@H]4C[C@H](OC)[C@H](O)[C@H](C)O4)[C@H](C)O3)[C@@H](C)O2)C(=O)NC/C=C/C=C(\C)[C@@H](OC)[C@H](C)[C@H]2C[C@H](O)[C@H](/C=C/C=C/C=C/C(=O)O)O2)[C@H](OC(=O)Cc2ccccc2)[C@H](O)C1(C)C [Phenelfamycin E] |  |  |  |  | 11.16 | 10.07 | 
COc1cc(O)c2c(=O)oc3c(O)c(OC)cc(C)c3c2c1 [Graphislactone A] | 13.44 | 0.967 | 16.48 | 0.892 |  |  | 
C/C1=C\C(C)C(O)/C(C)=C/C(O[C@H]2O[C@H](CO)[C@@H](O)[C@H](O)[C@@H]2O)C(O)C(C)C(O)CC(O)/C=C\C(C)C(O)C(C)CCC(O)CC(O)C(C)C(O)C(C)C(O)CC(O)CC(O)C(C)C(C(C)CCCCCCN)OC(=O)CCCCCC(O)C(C)C(O)CC/C=C/C(C)C1O (stereo partly drawn) [Monazomycin] |  |  |  |  | 9.53 | 13.73 | 
CC1=C[C@H]2O[C@@H]3[C@H](O)[C@@H](O)[C@](C)([C@@]2(CO)[C@H](O)C1=O)[C@]31CO1 [Nivalenol] |  |  |  |  |  |  | T.vaginalis_%inb_Rep1 [1]: 9.96%; T.vaginalis_%inb_Rep2 [1]: 14.26%
CC(C)CCC[C@@H](C)[C@@H]1CC[C@]2(C)C3=C(CC[C@@]12C)[C@@]1(C)CC[C@H](O)C(C)(C)[C@@H]1CC3 [Dihydroeuphol] | 14.92 | 0.986 | 10.05 | 0.759 |  |  | 
Enniatin A |  | 0.983 |  | 0.865 |  |  | 
ikarugamycin [reference compound] |  |  |  |  |  |  | T. vaginalis HTS result in words [1]: supported the anti-trichomonal activity
COCC(=O)N[C@@H](C(=O)N1NCCC[C@H]1C(=O)N[C@@H](Cc1ccccc1)[C@@H](O)[C@H](C)C(=O)N[C@H]1CCN(C(N)=O)C1=O)[C@H](O)C(C)C [Padanamide A] |  |  |  |  | 15.72 | 10.52 | 
CC[C@@H]1CCN[C@H](C(=O)N[C@@H]([C@H]2O[C@H](SC)[C@H](O)[C@@H](O)[C@H]2O)[C@H](C)Cl)C1 [Pirlimycin] |  |  |  |  | 5.02 | 5.77 | 
CCC/C=C/C=C/[C@@H]1C[C@@H](O)[C@@H](O)C(=O)[C@H]1CO [Palitantin] |  |  |  |  | 13.59 | 14.56 | 
CCCNC[C@]1(O)[C@H](C)O[C@@H](O[C@H]2[C@H](C)[C@@H](O[C@@H]3O[C@H](C)C[C@H](N(C)C)[C@H]3O)[C@](C)(O)C[C@@H](C)CN[C@H](C)[C@@H](O)[C@](C)(O)[C@@H](CC)OC(=O)[C@@H]2C)C[C@@]1(C)OC [Tulathromycin] | 10.12 |  | 14.75 |  |  |  | 
CC1=CC[C@H]2C(C)(C)CCC[C@]2(C)[C@H]1CO [Drimenol] | 14.49 | 0.978 | 11.14 | 0.774 |  |  | 
COC(=O)C1(O)CC2OC1(C)n1c3ccccc3c3c4c(c5c6ccccc6n2c5c31)C(=O)NC4 (stereo not drawn) [K252A, reference compound] |  |  |  |  |  |  | T. vaginalis HTS result in words [1]: active analogues
CC[C@H](C)C[C@H](C)CCCCCCCCC(=O)N[C@H]1C[C@@H](O)[C@@H](O)NC(=O)[C@@H]2[C@@H](O)CCN2C(=O)[C@H]([C@H](O)CC(N)=O)NC(=O)[C@H]([C@H](O)[C@@H](O)c2ccc(O)cc2)NC(=O)[C@@H]2C[C@@H](O)CN2C(=O)[C@H]([C@@H](C)O)NC1=O [Pneumocandin B0] ({Tetradecanoyl(10R,12S-Me2)}-[Orn(4R-OH,5R-OH)]T[Hyp][hTyr(3S-OH,4S-OH)][Gln(3R-OH)][Pro(3S-OH)]; lactam 1-C) |  |  |  |  | 10.50 | 8.92 | 
Nc1cc2nc3ccccc3oc-2cc1=O [Questiomycin A] |  |  |  |  | 16.02 | 12.32 | 
O=c1[nH]c2ccccc2c(-c2cccc(O)c2)c1O [Viridicatol] | 6.71 |  | 14.99 |  |  |  | 
CO[C@H]1/C=C\C=C(/C)C(=O)NC2=CC(=O)C(NCCN(C)C)=C(C[C@@H](C)C[C@H](OC)[C@H](O)[C@@H](C)/C=C(\C)[C@@H]1OC(N)=O)C2=O [17-DAAG, 17-dimethylaminoethylamino-17-demethoxygeldanamycin, reference compound] |  |  |  |  |  |  | T. vaginalis HTS result in words [1]: partial hits
Cc1c2c(c(O)c3c(O)ccc(Cl)c13)C(=O)C1(O)C(O)=C(C(N)=O)C(=O)C(N(C)C)C1C2.Cl (stereo not drawn) | 10.90 | 0.917 | 9.56 | 0.784 |  |  | 
CN(C)C1C(=O)C(C(N)=O)=C(O)C2(O)C(=O)C3=C(O)c4c(O)cccc4C(C)(O)C3C(O)C12 (stereo not drawn) [Epioxytetracycline] | 13.46 | 0.959 | 17.43 | 0.861 |  |  | 
CCc1c(O)c(C)c(C(C)CC)oc1=O (stereo not drawn) [Germicidin A] | 11.41 | 0.927 | 12.19 | 0.825 |  |  | 
CC(C)=CC(=O)CC(C)c1ccc(C)cc1 (stereo not drawn) [Turmerone] | 9.33 |  | 14.44 |  |  |  | 
CN(C)C1C(=O)C(C(N)=O)=C(O)C2(O)C(=O)C3=C(O)c4c(O)ccc(Cl)c4C(C)(O)C3CC12.Cl (stereo not drawn) [Epichlortetracycline hydrochloride] | 7.49 | 0.848 | 3.76 | 0.672 |  |  | 
COc1c(OC)c(-c2c[nH]c3ccc(O)cc23)c(OC)c(OC)c1-c1c[nH]c2ccccc12 [Petromurin C] |  |  |  |  | 7.91 | 12.64 | 
CC(=O)OCc1c(O)c2c(c3c1OC(=O)c1c(C)cc(O)c(C=O)c1O3)C(O)OC2=O (stereo not drawn) [Galbinic acid] | 15.37 | 1.005 | 12.89 | 0.836 |  |  | 
Enniatin A1 |  | 0.98 |  | 0.8 |  |  | 
C/C=C(\C)c1c(Cl)c(OC)c(C)c2c1Oc1c(Cl)c(O)c(Cl)c(C)c1C(=O)O2 [Nidulin] |  |  |  |  | 13.95 | 15.46 | 
